Like-named read-outs stand apart in the source and are kept apart here.
Legend:
[1] = system: MCF-7 Tam1 cells; assay: Inhibition of tamoxifen-resistant MCF-7 Tam1 cell proliferation (CTG); type: cell-based; conditions: Homo sapiens, MCF7:TAM1, 120 h, read-out: IC50 (nM), inhibitory activity on tamoxifen-resistant cells MCF-7 Tam1
[2] = system: MCF-7 mouse subcutaneous tumor model; assay: Growth inhibition in MCF-7 mouse subcutaneous tumor model; type: in vivo, mice; conditions: p.o., QD; for mean tumour volume (mm^3), 21 days / TGI(%): 21 days; for TGI(%): LSZ102 15 mg/kg, Example 4 5 mg/kg
Text: Experimental reagents: fetal bovine serum (SH30070.03) (FBS, Hyclone, Logan, UT, USA); penicillin ([…]) (Sigma, St. Louis, MO, USA); streptomycin (85886) (Sigma, St. Louis, MO, USA); recombinant human insulin (91077C) (Sigma, St. Louis, MO, USA); EMEM medium (30-2003) (ATCC, Rockville, MD, USA); trypsin (15090046) (Gibco, Grand Island, NY, USA); HBSS ([…]), DMSO (D8418), PEG400 (8074851000), PEG300 (8074841000), PBS (806552), Solutol HS-15 (42966) (Sigma, St. Louis, MO, USA); Matrigel Matrix (BD Bioscience, USA); estrogen pellets (0.36 mg estradiol, 60-day release) (SE-121) (Innovative Research of America, Florida, USA); […] StarSignal Western Protein Marker (10-200 kDa) (M227-01) (GenStar, Beijing, China); Ponceau red, Tween 20, acrylamide, sodium dodecyl sulfate, PMSF (Solon, OH, USA); protein blotting membrane regeneration solution (ZN1923, Biolab, Beijing, China); protein lysis buffer (RIPA), 1.5 mol/L Tris HCl (pH 6.8), 1.5 mol/L Tris HCl (pH 8.8) (Beyotime, Shanghai, China); ECL luminescent solution (Thermo Fisher Scientific, Pittsburgh, PA, USA); […] Goat Anti-Rabbit IgG H&L (HRP) (ab6721) purchased from Abcam (Abcam, Cambridge, UK). […] Cell culture conditions: […] When the cells were fused to 90%, the old medium was discarded, and the cells were washed twice with 2 ml PBS. […] When the cells became round, 2 ml complete medium was quickly added to terminate digestion, and the cells were gently blown and collected, and centrifuged at 800 rpm, 4° C. for 5 min. The supernatant was discarded, the cells were resuspended with complete medium, cultured in bottles, and the medium was changed every other day. […] LSZ102 (15 mg/kg) group: […] LSZ-102 is a selective estrogen receptor degrader developed by Novartis in the clinical research stage and is one of the earliest oral SERDs to enter clinical research; […] The tumor inhibition efficacy of the compound was evaluated by tumor growth inhibition rate TGI (%).

[3] = system: MCF-7 cells; assay: Inhibition of MCF-7 cell proliferation (CTG/ATP method); type: cell-based; conditions: for IC50: Homo sapiens, MCF7, 144 h, read-out: IC50 (nM), inhibitory activity on MCF-7 cell proliferation; for anti-tumor activity, times higher than SAR439859 / anti-tumor activity, times higher than fulvestrant: MCF-7 proliferation; for anti-tumor activity, times higher than SAR439859: vs SAR439859; for anti-tumor activity, times higher than fulvestrant: vs fulvestrant
Method: The purpose of this experiment is to determine the in vitro proliferation inhibitory effect of the compounds of the present invention on the commonly used breast cancer estrogen receptor-positive cells, MCF-7 cells, and to evaluate the in vitro activity of the compounds based on IC50. The inhibitory effect of the compounds of the present invention on the proliferation of MCF-7 cells was tested by the ATP method, specifically the CTG method. CellTiter-Glo, referred to as CTG, is a rapid homogenous detection method for determining the number of viable cells in culture by quantifying ATP. ATP is a key indicator of the metabolism of living cells. The homogenous detection makes the cell lysis and the generated luminescent signal proportional to the amount of ATP present, and the amount of ATP is directly proportional to the number of cells in the culture. The specific experimental method is as follows. […] The cells were cultured in a 37° C. incubator under 5% CO2. Cell passaging, recovery and cryopreservation were performed according to conventional methods. […] On the second day, the drug with concentration gradient was added, 10 μL per well. […] The 96-well plate was incubated in 5% CO2 at 37° C. for 6 days. 50 μL of CTG reagent was added to each well of the 96-well plate, and the plate was shaken on a shaker for 5 min, and then left at room temperature and protected from light for 10 min. 60 μL of CTG reagent was transferred to the 384-well Opti-plate. The luminescence signals were read by a multifunctional enzyme marker, and the signal intensity was used to characterize the number of viable cells. The data of each dosing group were normalized to 100% of the mean value of the control group, and the data were processed and analyzed by GraphPad Prism software.

[4] = Pharmacokinetics in rats, oral; type: in vivo, SD rats; conditions: rat, 10 mg/kg
Method: The purpose of this experiment is to test the pharmacokinetic properties of the compounds of the present invention in rats.
The solvent is 5% DMSO+5% Solutol+90% (0.5% MC), which is a colorless and clear dosing solution. The dosing method and dosage are: oral, 10 mg/kg. SD rats were randomly divided into groups according to body weight, fasted but not watered for 12-14 hours one day before dosing, and fed 4 hours after dosing. 0.1 mL of blood was collected from each animal through the eye socket each time, anticoagulated with EDTAK2, and the collection time points were: 0, 5, 15, 30 minutes, 1, 2, 4, 6, 8, 24 hours after administration of the test compound. After blood sample collection, it was placed on ice and centrifuged within 30 minutes to separate plasma (centrifugation conditions: 5000 rpm, 10 minutes, 4° C.). It was stored at −80° C. before analysis. The concentration of compounds in rat plasma was determined by LC-MS/MS. The data acquisition and control system software was Analyst 1.5.1 software (Applied Biosystem). The peak integration method of the chromatogram sample was automatic integration; the ratio of the sample peak area to the internal standard peak area was used as an indicator and regressed with the concentration of the sample. Regression method: linear regression, weight coefficient is 1/X^2. Pharmacokinetic parameters were analyzed and processed by WinNonlin Professional v6.3 (Pharsight, USA) using non-compartmental model. Cmax is the maximum measured blood drug concentration, the area under the blood drug concentration-time curve AUC (0→t) was calculated by the trapezoidal method, and Tmax is the time when the blood drug concentration reaches the peak after administration. Experimental data are expressed as “mean±standard deviation” (Mean±SD, n≥3) or “mean” (Mean, n=2).

[5] = in vivo; conditions: female, Sprague-Dawley (SD), rat, po, 10 mg/kg
[6] = molecular target: ERα of uterine tissue (Rattus norvegicus, UniProt P06211); conditions: in vivo, po
Chain of ERα of uterine tissue (P06211 whole entry): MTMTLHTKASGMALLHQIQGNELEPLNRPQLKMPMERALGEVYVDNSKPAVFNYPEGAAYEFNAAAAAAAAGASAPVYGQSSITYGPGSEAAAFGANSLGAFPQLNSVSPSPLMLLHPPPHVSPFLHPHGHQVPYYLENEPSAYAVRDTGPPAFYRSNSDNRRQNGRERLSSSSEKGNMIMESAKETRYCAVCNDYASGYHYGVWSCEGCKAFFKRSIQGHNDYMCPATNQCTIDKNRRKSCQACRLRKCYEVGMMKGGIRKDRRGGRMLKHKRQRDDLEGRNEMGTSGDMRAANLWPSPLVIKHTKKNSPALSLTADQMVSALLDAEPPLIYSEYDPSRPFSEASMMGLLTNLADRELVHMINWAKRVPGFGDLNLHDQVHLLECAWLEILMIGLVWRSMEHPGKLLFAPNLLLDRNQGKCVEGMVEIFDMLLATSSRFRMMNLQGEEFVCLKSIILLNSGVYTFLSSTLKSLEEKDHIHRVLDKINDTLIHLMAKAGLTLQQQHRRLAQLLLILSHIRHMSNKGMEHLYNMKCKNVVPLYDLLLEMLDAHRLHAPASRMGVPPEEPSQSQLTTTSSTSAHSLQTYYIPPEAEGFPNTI
Method: HE experiment: 1) Cut the fixed uterine tissue into […] slices and place the slices in an oven for 1 hour; 2) Dewax the dried paraffin slices with conventional xylene, hydrate with gradient ethanol, and wash with distilled water; 3) Add hematoxylin to stain for 10 min to 30 min, then wash away the hematoxylin stain with running water; 4) Decolorize with 1% hydrochloric acid ethanol until the slices turn red and lighter in color, and then put them in running water to restore them to blue.

For `COc1cc(F)ccc1[C@@H]1CSc2cc(O)ccc2[C@@H]1c1ccc(OCCN2CC(CF)C2)cc1` (relative stereo) [Example 4, Cis-3-(4-fluoro-2-methoxyphenyl)-4-(4-(2-(3-(fluoromethyl)azetidin-1-yl)ethoxy)phenyl)-7-hydroxythiochroman], the IC50 [1] was 6.84 ± 1.4 nM, the “mean tumour volume (mm^3), 0 day” value [2] was 202 mm^3 and the “mean tumour volume (mm^3), 21 days” value [2] was 332 mm^3. For the same compound, the “TGI(%)” value [2] was 78%.
Work on `COc1cc(F)ccc1C1CSc2cc(B(O)O)ccc2C1c1ccc(OCCN2CC(CF)C2)cc1` (stereo not drawn) [Example 10, Cis-(3-(4-fluoro-2-methoxyphenyl)-4-(4-(2-(3-(fluoromethyl)azetidin-1-yl)ethoxy)phenyl)thiochroman-7-boronic Acid] yielded an IC50 ([3]; MCF-7, CTG, 6 days) of 1.7 nM.
For `COc1cc(F)ccc1[C@H]1CSc2cc(O)ccc2[C@H]1c1ccc(OCCN2CC(CF)C2)cc1` [Example 18, (3S,4R)-3-(4-fluoro-2-methoxyphenyl)-4-(4-(2-(3-(fluoromethyl)azetidin-1-yl)ethoxy)phenyl-)7-hydroxythiochroman], the “anti-tumor activity, times higher than SAR439859” value [3] was 15.6 times, the “anti-tumor activity, times higher than fulvestrant” value [3] was 7.6 times and the IC50 [1] was 5.37 ± 0.42 nM. For the same compound, the Tmax ([4]; Sprague-Dawley (SD), plasma) was 3 h, the half-life ([4]; Sprague-Dawley (SD), plasma) was 8.92 h and the “MRTPO” value [4] was 13.4 h. The “AUC0-t” value ([4]; plasma) was 1365 ng·h/mL, the “Cmax” value ([4]; plasma) was 198 ng/mL and the concentration at 4 h ([5]; brain) was 17400 ng/g. It also gave a Kp at 4 h ([5]; brain/plasma) of 14.1 and a concentration at 4 h ([5]; plasma) of 1230 ng/mL.
Work on `O=C(O)c1ccc2c(c1)CCCC(c1ccc(Cl)cc1Cl)=C2c1ccc(O[C@H]2CCN(CCCF)C2)cc1` [SAR439859, reference compound] yielded an IC50 [3] of 3.9 nM.
Compound `C[C@]12CC[C@@H]3c4ccc(O)cc4C[C@@H](CCCCCCCCC[S+]([O-])CCCC(F)(F)C(F)(F)F)[C@H]3[C@@H]1CC[C@@H]2O` (stereo partly drawn) [Fulvestrant, reference compound] has an IC50 [3] of 1.9 nM.
With 4-hydroxytamoxifen the “Mean body weight” value [6] was 43.9 g.
With `CC(F)(F)c1cc(F)ccc1-c1sc2cc(O)ccc2c1Oc1ccc(/C=C/C(=O)O)cc1` [LSZ102, reference compound] the “mean tumour volume (mm^3), 0 day” value [2] was 200 mm^3, the “mean tumour volume (mm^3), 21 days” value [2] was 345 mm^3 and the “TGI(%)” value [2] was 75%.
With `Oc1ccc2c(c1)SC[C@H](c1cc(F)c(F)cc1F)[C@@H]2c1ccc(OCCN2CC(CF)C2)cc1` [Example 19, (3S,4R)-4-(4-(2-(3-(fluoromethyl)azetidin-1-yl)ethoxy)phenyl)-3-(2,4,5-trifluorophenyl)-7-hydroxythiochroman] the “anti-tumor activity, times higher than SAR439859” value [3] was 15.6 times and the “anti-tumor activity, times higher than fulvestrant” value [3] was 7.6 times.

— patent publication US20260226035A1, “THIOCHROMAN DERIVATIVE AND PREPARATION METHOD THEREFOR AND USE THEREOF” (SHANGHAI INSTITUTE OF MATERIA MEDICA, CHINESE ACADEMY OF …, priority 2022, published 2026)
